Reference: PubChem BioAssay AID248 (DTP/NCI, 2004)
Where “and” joins values, the source holds several entries; their conditions need not be identical. Identical values can stand only once. Inconclusive results and toxic doses are left out. Rule as the data show it: active = T/C of 150% or more; inactive = T/C below 125%.

Tested on: L1210 leukemia ip in BDF1 mice, survival T/C
Assay: NCI In Vivo Anticancer Drug Screen. Data for tumor model L1210 Leukemia (intraperitoneal) in B6D2F1 (BDF1) mice
Conditions: endpoint: mean survival time, higher = longer survival
How it was run: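 In this screen, tumor-bearing mice given compound are compared to those given vehicle, and their survival values are reported as a treated-to-control quotient.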

[1] = dose: 100.0 mg/kg/injection, schedule: Q04DX003 (ip), vehicle: Klucel (hydroxypropylcellulose) (HPC)
[2] = dose: 200.0 mg/kg/injection, schedule: Q04DX003 (ip), vehicle: Klucel (hydroxypropylcellulose) (HPC)
[3] = dose: 400.0 mg/kg/injection, schedule: Q04DX003 (ip), vehicle: Klucel (hydroxypropylcellulose) (HPC)
[4] = dose: 100.0 mg/kg/injection, schedule: Q01DX001 (ip), vehicle: carboxymethylcellulose (CMC)
[5] = dose: 200.0 mg/kg/injection, schedule: Q01DX001 (ip), vehicle: carboxymethylcellulose (CMC)
[6] = dose: 400.0 mg/kg/injection, schedule: Q01DX001 (ip), vehicle: carboxymethylcellulose (CMC)
[7] = dose: 50.0 mg/kg/injection, schedule: Q01DX001 (ip), vehicle: saline
[8] = dose: 100.0 mg/kg/injection, schedule: Q01DX001 (ip), vehicle: saline
[9] = dose: 100.0 mg/kg/injection, schedule: Q04DX002 (ip), vehicle: saline with Tween-80
[10] = dose: 400.0 mg/kg/injection, schedule: Q04DX002 (ip), vehicle: saline with Tween-80
[11] = dose: 200.0 mg/kg/injection, schedule: Q01DX001 (ip), vehicle: saline
[12] = dose: 400.0 mg/kg/injection, schedule: Q01DX001 (ip), vehicle: saline
[13] = dose: 100.0 mg/kg/injection, schedule: Q04DX003 (ip), vehicle: saline with Tween-80
[14] = dose: 200.0 mg/kg/injection, schedule: Q04DX003 (ip), vehicle: saline with Tween-80

Measured: T/C

Cc1ccc(S(=O)(=O)OCC2C3CCC(C4CCC43)C2COS(=O)(=O)c2ccc(C)cc2)cc1 (configuration not stated)
inactive: [1] 96 % of control | [2] 93 % of control | [3] 91 % of control

O=C(Nc1ccc(C2=NCCN2)cc1)c1ccc(Br)c(C(=O)Nc2ccc(C3=NCCN3)cc2)c1
inactive: dose: 15.0 mg/kg/injection, schedule: Q01DX Z (ip), vehicle: saline 101 % of control | dose: 20.0 mg/kg/injection, schedule: Q01DX Z (ip), vehicle: water 102 % of control | dose: 30.0 mg/kg/injection, schedule: Q01DX Z (ip), vehicle: saline 117 % of control | dose: 30.0 mg/kg/injection, schedule: Q01DX Z (ip), vehicle: water 120 % of control

Cc1cc(=O)oc2cc(OCc3ccccc3)cc(O)c12
inactive: dose: 75.0 mg/kg/injection, schedule: Q01DX001 (ip), vehicle: other 103 % of control | dose: 150.0 mg/kg/injection, schedule: Q01DX001 (ip), vehicle: other 108 % of control | dose: 300.0 mg/kg/injection, schedule: Q01DX001 (ip), vehicle: other 108 % of control

CC(=O)OC12CC3(C)CC(C)(C1)CC(OC(C)=O)(C3)C2
inactive: dose: 100.0 mg/kg/injection, schedule: Q04DX002 (ip), vehicle: saline 113 % of control | dose: 200.0 mg/kg/injection, schedule: Q04DX002 (ip), vehicle: saline 90 % of control | dose: 400.0 mg/kg/injection, schedule: Q04DX002 (ip), vehicle: saline 113 % of control

NC(N)=NN=C(c1ccc(F)cc1)c1ccc(F)cc1
inactive: dose: 4.0 mg/kg/injection, schedule: Q01DX Z (oral), vehicle: carboxymethylcellulose (CMC) 111 % of control | dose: 8.0 mg/kg/injection, schedule: Q01DX Z (oral), vehicle: carboxymethylcellulose (CMC) 104 % of control | dose: 10.0 mg/kg/injection, schedule: Q01DX001 (ip), vehicle: carboxymethylcellulose (CMC) 100 % of control

O=C1CC(=O)N(Cc2ccccc2)C(=O)N1
inactive: [4] 86 % of control | [5] 95 % of control

Nc1ccc(C(=O)/C=C/c2ccccn2)cc1
inactive: dose: 50.0 mg/kg/injection, schedule: Q01DX001 (ip), vehicle: carboxymethylcellulose (CMC) 97 % of control | [4] 103 % of control | [5] 105 % of control | [6] 103 % of control

C=CC[Si](Cl)(Cl)Cl
inactive: [7] 93 % of control | [8] 98 % of control

CC(=O)OC1OC2COC(C)(C)OCC2C(OC(C)=O)C1OC(C)=O (configuration not stated)
inactive: dose: 100.0 mg/kg/injection, schedule: Q01DX001 (ip), vehicle: saline with Tween-80 96 % of control | dose: 200.0 mg/kg/injection, schedule: Q01DX001 (ip), vehicle: saline with Tween-80 104 % of control

OCCNC(=S)Nc1cccc(C(F)(F)F)c1
inactive: dose: 100.0 mg/kg/injection, schedule: Q01DX009 (ip), vehicle: saline with Tween-80 100 % of control | [9] 91 % of control | dose: 200.0 mg/kg/injection, schedule: Q01DX009 (ip), vehicle: saline with Tween-80 97 % of control | dose: 200.0 mg/kg/injection, schedule: Q04DX002 (ip), vehicle: saline with Tween-80 98 % of control | [10] 112 % of control

C/C=C\C=C\C(=O)O
inactive: dose: 100.0 mg/kg/injection, schedule: Q04DX002 (ip), vehicle: Klucel (hydroxypropylcellulose) (HPC) 97 % of control | dose: 200.0 mg/kg/injection, schedule: Q04DX002 (ip), vehicle: Klucel (hydroxypropylcellulose) (HPC) 94 % of control | dose: 400.0 mg/kg/injection, schedule: Q04DX002 (ip), vehicle: Klucel (hydroxypropylcellulose) (HPC) 103 % of control

CCN(Cc1ccccc1)c1nn[nH]n1
inactive: [8] 98 % of control | [11] 102 % of control | [12] 102 % of control

CCC[CH2][Sn]([c]1ccccc1)([c]1ccccc1)[c]1ccccc1
inactive: dose: 25.6 mg/kg/injection, schedule: Q04DX002 (ip), vehicle: saline with Tween-80 90 % of control | dose: 64.0 mg/kg/injection, schedule: Q04DX002 (ip), vehicle: saline with Tween-80 90 % of control | [13] 88 % of control | dose: 160.0 mg/kg/injection, schedule: Q04DX002 (ip), vehicle: saline with Tween-80 93 % of control | [14] 96 % of control | [10] 97 % of control

Cc1ccc(C)n1Cc1ccccc1
inactive: dose: 100.0 mg/kg/injection, schedule: Q04DX003 (ip), vehicle: other 98 % of control | dose: 200.0 mg/kg/injection, schedule: Q04DX003 (ip), vehicle: other 98 % of control | dose: 400.0 mg/kg/injection, schedule: Q04DX003 (ip), vehicle: other 101 % of control

CCc1cc2c(cc1C(=O)CCN1CCCC1)C(C)(C)CCC2(C)C
inactive: dose: 25.0 mg/kg/injection, schedule: Q04DX002 (ip), vehicle: saline with Tween-80 90 % of control | dose: 50.0 mg/kg/injection, schedule: Q04DX002 (ip), vehicle: saline with Tween-80 90 % of control | [9] 90 % of control

OCCc1ccccc1O
inactive: [7] 94 % of control | [8] 94 % of control | [11] 100 % of control | [12] 100 % of control

Nc1nc2nc3c(nc2c(=O)[nH]1)CN(C1CCCCC1)C3=O
inactive: dose: 75.0 mg/kg/injection, schedule: Q01DX001 (ip), vehicle: carboxymethylcellulose (CMC) 96 % of control | dose: 150.0 mg/kg/injection, schedule: Q01DX001 (ip), vehicle: carboxymethylcellulose (CMC) 94 % of control

CCCCN(CCCC)CC(O)c1cc2ccc(Cl)cc2nc1-c1ccc(Cl)cc1 (configuration not stated)
inactive: [1] 100 % of control | [2] 96 % of control | [3] 102 % of control

CNC(=O)NC1CCCCC1
inactive: [4] 106 % of control | dose: 100.0 mg/kg/injection, schedule: Q01DX009 (ip), vehicle: carboxymethylcellulose (CMC) 92 % of control and 98 % of control | dose: 100.0 mg/kg/injection, schedule: Q04DX002 (ip), vehicle: carboxymethylcellulose (CMC) 97 % of control | dose: 100.0 mg/kg/injection, schedule: Q04DX003 (ip), vehicle: carboxymethylcellulose (CMC) 100 % of control | [5] 103 % of control | dose: 200.0 mg/kg/injection, schedule: Q01DX009 (ip), vehicle: carboxymethylcellulose (CMC) 95 % of control and 96 % of control | dose: 200.0 mg/kg/injection, schedule: Q04DX002 (ip), vehicle: carboxymethylcellulose (CMC) 89 % of control | dose: 200.0 mg/kg/injection, schedule: Q04DX003 (ip), vehicle: carboxymethylcellulose (CMC) 97 % of control | [6] 106 % of control | dose: 400.0 mg/kg/injection, schedule: Q01DX009 (ip), vehicle: carboxymethylcellulose (CMC) 101 % of control | dose: 400.0 mg/kg/injection, schedule: Q04DX002 (ip), vehicle: carboxymethylcellulose (CMC) 100 % of control | dose: 400.0 mg/kg/injection, schedule: Q04DX003 (ip), vehicle: carboxymethylcellulose (CMC) 100 % of control

Clc1ccc(OCCOc2ccc(Cl)cc2)cc1
inactive: [13] 95 % of control | [14] 92 % of control | dose: 400.0 mg/kg/injection, schedule: Q04DX003 (ip), vehicle: saline with Tween-80 106 % of control

CCc1c(Nc2ccc(Cl)c(Cl)c2)nc(N)[nH]c1=O
inactive: dose: 100.0 mg/kg/injection, schedule: Q01DX Z (ip), vehicle: methylcellulose (MC) 99 % of control | dose: 200.0 mg/kg/injection, schedule: Q01DX Z (ip), vehicle: methylcellulose (MC) 100 % of control

CC(=O)SCCC(=O)O
inactive: dose: 8.25 mg/kg/injection, schedule: Q01DX009 (ip), vehicle: saline 94 % of control | dose: 12.5 mg/kg/injection, schedule: Q01DX009 (ip), vehicle: saline 92 % of control | dose: 18.75 mg/kg/injection, schedule: Q01DX009 (ip), vehicle: saline 103 % of control

[Mg+2]
inactive: [8] 96 % of control | dose: 100.0 mg/kg/injection, schedule: Q01DX009 (ip), vehicle: saline 95 % of control | dose: 100.0 mg/kg/injection, schedule: Q04DX003 (ip), vehicle: saline 93 % of control | [11] 91 % of control | dose: 200.0 mg/kg/injection, schedule: Q01DX009 (ip), vehicle: saline 95 % of control | dose: 200.0 mg/kg/injection, schedule: Q04DX003 (ip), vehicle: saline 89 % of control | [12] 96 % of control | dose: 400.0 mg/kg/injection, schedule: Q01DX009 (ip), vehicle: saline 97 % of control | dose: 400.0 mg/kg/injection, schedule: Q04DX003 (ip), vehicle: saline 88 % of control
